Measurements from ChEMBL document CHEMBL3046801, “Synthesis of 2-R1-2-(4-(2-fluoroethoxy)benzamido)acetate as potential PET imaging agents” (Med Chem Res, 2012).

Assays:
[1] = test system: Spleen; experiment: Biodistribution in tumor bearing Mus musculus KM (mouse) spleen by microPET imaging analysis; format: ADME, organism-based; conditions: in vivo, TDE = time-dependent effect
[2] = test system: Lung; experiment: Biodistribution in tumor bearing Mus musculus KM (mouse) Lung at 15 min by microPET imaging analysis; format: ADME, organism-based; conditions: in vivo, 0.25 h
[3] = test system: Kidney; experiment: Biodistribution in tumor bearing Mus musculus KM (mouse) kidney at 60 min by microPET imaging analysis; format: ADME, organism-based; conditions: in vivo, 1 h
[4] = test system: Liver; experiment: Biodistribution in tumor bearing Mus musculus KM (mouse) liver by microPET imaging analysis; format: ADME, organism-based; conditions: in vivo, TDE = time-dependent effect
[5] = test system: Lung; experiment: Biodistribution in tumor bearing Mus musculus KM (mouse) lung by microPET imaging analysis; format: ADME, organism-based; conditions: in vivo, TDE = time-dependent effect
[6] = test system: Kidney; experiment: Biodistribution in tumor bearing Mus musculus KM (mouse) kidney by microPET imaging analysis; format: ADME, organism-based; conditions: in vivo, TDE = time-dependent effect
[7] = test system: Blood; experiment: Biodistribution in tumor bearing Mus musculus KM (mouse) blood at 15 min by microPET imaging analysis; format: ADME, organism-based; conditions: in vivo, 0.25 h
[8] = test system: Tumour; experiment: Biodistribution in tumor of Mus musculus KM (mouse) by microPET imaging analysis; format: ADME, organism-based, Neoplasm; conditions: in vivo, TDE = time-dependent effect
[9] = test system: Brain; experiment: Biodistribution in tumor bearing Mus musculus KM (mouse) brain at 5 min by microPET imaging analysis; format: ADME, organism-based; conditions: in vivo
[10] = test system: Nucleic Acid; experiment: Ratio of drug uptake in tumor to muscle in Mus musculus KM (mouse) at 60 min; format: ADME, nucleic-acid assay; conditions: in vivo, 1 h
[11] = test system: Blood; experiment: Biodistribution in tumor bearing Mus musculus KM (mouse) blood at 30 min by microPET imaging analysis; format: ADME, organism-based; conditions: in vivo, 0.5 h
[12] = test system: Lung; experiment: Biodistribution in tumor bearing Mus musculus KM (mouse) Lung at 30 min by microPET imaging analysis; format: ADME, organism-based; conditions: in vivo, 0.5 h
[13] = test system: Tumour; experiment: Biodistribution in Mus musculus KM (mouse) tumor at 5 min by microPET imaging analysis; format: ADME, organism-based, Neoplasm; conditions: in vivo
[14] = test system: Muscle tissue; experiment: Biodistribution in tumor bearing Mus musculus KM (mouse) muscle by microPET imaging analysis; format: ADME, organism-based; conditions: in vivo, TDE = time-dependent effect
[15] = test system: Heart; experiment: Biodistribution in tumor bearing Mus musculus KM (mouse) heart by microPET imaging analysis; format: ADME, organism-based; conditions: in vivo, TDE = time-dependent effect
[16] = test system: Spleen; experiment: Biodistribution in tumor bearing Mus musculus KM (mouse) spleen at 15 min by microPET imaging analysis; format: ADME, organism-based; conditions: in vivo, 0.25 h
[17] = test system: Tumour; experiment: Biodistribution in Mus musculus KM (mouse) tumor at 60 min by microPET imaging analysis; format: ADME, organism-based, Neoplasm; conditions: in vivo, 1 h
[18] = Octanol-PBS partition coefficient of the compound at pH 7.4 by gamma counter; format: physicochemical; conditions: read-out: log KOW
[19] = test system: Spleen; experiment: Biodistribution in tumor bearing Mus musculus KM (mouse) spleen at 120 min by microPET imaging analysis; format: ADME, organism-based; conditions: in vivo, 2 h
[20] = test system: Muscle tissue; experiment: Biodistribution in tumor bearing Mus musculus KM (mouse) muscle at 15 min by microPET imaging analysis; format: ADME, organism-based; conditions: in vivo, 0.25 h
[21] = test system: Spleen; experiment: Biodistribution in tumor bearing Mus musculus KM (mouse) spleen at 30 min by microPET imaging analysis; format: ADME, organism-based; conditions: in vivo, 0.5 h
[22] = test system: Blood; experiment: Biodistribution in tumor bearing Mus musculus KM (mouse) blood at 5 min by microPET imaging analysis; format: ADME, organism-based; conditions: in vivo
[23] = test system: Blood; experiment: Biodistribution in tumor bearing Mus musculus KM (mouse) blood at 120 min by microPET imaging analysis; format: ADME, organism-based; conditions: in vivo, 2 h
[24] = test system: Heart; experiment: Biodistribution in tumor bearing Mus musculus KM (mouse) heart at 15 min by microPET imaging analysis; format: ADME, organism-based; conditions: in vivo, 0.25 h
[25] = test system: Lung; experiment: Biodistribution in tumor bearing Mus musculus KM (mouse) Lung at 5 min by microPET imaging analysis; format: ADME, organism-based; conditions: in vivo
[26] = test system: Heart; experiment: Biodistribution in tumor bearing Mus musculus KM (mouse) heart at 5 min by microPET imaging analysis; format: ADME, organism-based; conditions: in vivo
[27] = test system: Brain; experiment: Biodistribution in tumor bearing Mus musculus KM (mouse) brain at 15 min by microPET imaging analysis; format: ADME, organism-based; conditions: in vivo, 0.25 h
[28] = test system: Nucleic Acid; experiment: Ratio of drug uptake in tumor to muscle in Mus musculus KM (mouse) at 15 min; format: ADME, nucleic-acid assay; conditions: in vivo, 0.25 h
[29] = test system: Muscle tissue; experiment: Biodistribution in tumor bearing Mus musculus KM (mouse) muscle at 30 min by microPET imaging analysis; format: ADME, organism-based; conditions: in vivo, 0.5 h
[30] = test system: Liver; experiment: Biodistribution in tumor bearing Mus musculus KM (mouse) liver at 5 min by microPET imaging analysis; format: ADME, organism-based; conditions: in vivo
[31] = test system: Brain; experiment: Biodistribution in tumor bearing Mus musculus KM (mouse) brain by microPET imaging analysis; format: ADME, organism-based; conditions: in vivo, TDE = time-dependent effect
[32] = test system: Muscle tissue; experiment: Biodistribution in tumor bearing Mus musculus KM (mouse) muscle at 60 min by microPET imaging analysis; format: ADME, organism-based; conditions: in vivo, 1 h
[33] = test system: Nucleic Acid; experiment: Ratio of drug uptake in tumor to muscle in Mus musculus KM (mouse) at 30 min; format: ADME, nucleic-acid assay; conditions: in vivo, 0.5 h
[34] = test system: Kidney; experiment: Biodistribution in tumor bearing Mus musculus KM (mouse) kidney at 120 min by microPET imaging analysis; format: ADME, organism-based; conditions: in vivo, 2 h
[35] = test system: Nucleic Acid; experiment: Ratio of drug uptake in tumor to muscle in Mus musculus KM (mouse) at 120 min; format: ADME; conditions: in vivo, 2 h
[36] = test system: Kidney; experiment: Biodistribution in tumor bearing Mus musculus KM (mouse) kidney at 5 min by microPET imaging analysis; format: ADME, organism-based; conditions: in vivo
[37] = test system: Muscle tissue; experiment: Biodistribution in tumor bearing Mus musculus KM (mouse) muscle at 120 min by microPET imaging analysis; format: ADME, organism-based; conditions: in vivo, 2 h
[38] = test system: Blood; experiment: Biodistribution in tumor bearing Mus musculus KM (mouse) blood by microPET imaging analysis; format: ADME, organism-based; conditions: in vivo, TDE = time-dependent effect
[39] = test system: Lung; experiment: Biodistribution in tumor bearing Mus musculus KM (mouse) Lung at 120 min by microPET imaging analysis; format: ADME, organism-based; conditions: in vivo, 2 h
[40] = test system: Brain; experiment: Biodistribution in tumor bearing Mus musculus KM (mouse) brain at 30 min by microPET imaging analysis; format: ADME, organism-based; conditions: in vivo, 0.5 h
[41] = test system: Spleen; experiment: Biodistribution in tumor bearing Mus musculus KM (mouse) spleen at 5 min by microPET imaging analysis; format: ADME, organism-based; conditions: in vivo
[42] = test system: Tumour; experiment: Biodistribution in Mus musculus KM (mouse) tumor at 120 min by microPET imaging analysis; format: ADME, organism-based, Neoplasm; conditions: in vivo, 2 h
[43] = test system: Lung; experiment: Biodistribution in tumor bearing Mus musculus KM (mouse) Lung at 60 min by microPET imaging analysis; format: ADME, organism-based; conditions: in vivo, 1 h
[44] = test system: Liver; experiment: Biodistribution in tumor bearing Mus musculus KM (mouse) liver at 60 min by microPET imaging analysis; format: ADME, organism-based; conditions: in vivo, 1 h
[45] = test system: Tumour; experiment: Biodistribution in Mus musculus KM (mouse) tumor at 15 min by microPET imaging analysis; format: ADME, organism-based, Neoplasm; conditions: in vivo, 0.25 h
[46] = test system: Heart; experiment: Biodistribution in tumor bearing Mus musculus KM (mouse) heart at 120 min by microPET imaging analysis; format: ADME, organism-based; conditions: in vivo, 2 h
[47] = test system: Brain; experiment: Biodistribution in tumor bearing Mus musculus KM (mouse) brain at 120 min by microPET imaging analysis; format: ADME, organism-based; conditions: in vivo, 2 h
[48] = test system: Brain; experiment: Biodistribution in tumor bearing Mus musculus KM (mouse) brain at 60 min by microPET imaging analysis; format: ADME, organism-based; conditions: in vivo, 1 h
[49] = test system: Liver; experiment: Biodistribution in tumor bearing Mus musculus KM (mouse) liver at 120 min by microPET imaging analysis; format: ADME, organism-based; conditions: in vivo, 2 h
[50] = test system: Kidney; experiment: Biodistribution in tumor bearing Mus musculus KM (mouse) kidney at 15 min by microPET imaging analysis; format: ADME, organism-based; conditions: in vivo, 0.25 h
[51] = test system: Kidney; experiment: Biodistribution in tumor bearing Mus musculus KM (mouse) kidney at 30 min by microPET imaging analysis; format: ADME, organism-based; conditions: in vivo, 0.5 h
[52] = test system: Tumour; experiment: Biodistribution in Mus musculus KM (mouse) tumor at 30 min by microPET imaging analysis; format: ADME, organism-based, Neoplasm; conditions: in vivo, 0.5 h
[53] = test system: Liver; experiment: Biodistribution in tumor bearing Mus musculus KM (mouse) liver at 15 min by microPET imaging analysis; format: ADME, organism-based; conditions: in vivo, 0.25 h
[54] = test system: Muscle tissue; experiment: Biodistribution in tumor bearing Mus musculus KM (mouse) muscle at 5 min by microPET imaging analysis; format: ADME, organism-based; conditions: in vivo
[55] = test system: Heart; experiment: Biodistribution in tumor bearing Mus musculus KM (mouse) heart at 60 min by microPET imaging analysis; format: ADME, organism-based; conditions: in vivo, 1 h
[56] = test system: Blood; experiment: Biodistribution in tumor bearing Mus musculus KM (mouse) blood at 60 min by microPET imaging analysis; format: ADME, organism-based; conditions: in vivo, 1 h
[57] = test system: Spleen; experiment: Biodistribution in tumor bearing Mus musculus KM (mouse) spleen at 60 min by microPET imaging analysis; format: ADME, organism-based; conditions: in vivo, 1 h
[58] = test system: Heart; experiment: Biodistribution in tumor bearing Mus musculus KM (mouse) heart at 30 min by microPET imaging analysis; format: ADME, organism-based; conditions: in vivo, 0.5 h
[59] = test system: Liver; experiment: Biodistribution in tumor bearing Mus musculus KM (mouse) liver at 30 min by microPET imaging analysis; format: ADME, organism-based; conditions: in vivo, 0.5 h

Drug uptake [1]: tde
Drug uptake [2]: 1.11 % ID/g
Drug uptake [3]: 0.46 % ID/g
Drug uptake [4]: tde
Drug uptake [5]: tde
Drug uptake [6]: tde
Drug uptake [7]: 1.45 % ID/g
Drug uptake [8]: tde
Drug uptake [9]: 0.34 % ID/g
Ratio [10]: 1.93
Drug uptake [11]: 0.39 % ID/g
Drug uptake [12]: 0.37 % ID/g
Drug uptake [13]: 1.72 % ID/g
Drug uptake [14]: tde
Drug uptake [15]: tde
Drug uptake [16]: 0.48 % ID/g
Drug uptake [17]: 0.29 % ID/g
logD [18]: -1.55
Drug uptake [19]: 0.2 % ID/g
Drug uptake [20]: 0.82 % ID/g
Drug uptake [21]: 0.22 % ID/g
Drug uptake [22]: 4.57 % ID/g
Drug uptake [23]: 0.3 % ID/g
Drug uptake [24]: 0.75 % ID/g
Drug uptake [25]: 3.37 % ID/g
Drug uptake [26]: 2.24 % ID/g
Drug uptake [27]: 0.23 % ID/g
Ratio [28]: 1.09
Drug uptake [29]: 0.47 % ID/g
Drug uptake [30]: 2.75 % ID/g
Drug uptake [31]: tde
Drug uptake [32]: 0.15 % ID/g
Ratio [33]: 0.99
Drug uptake [34]: 0.32 % ID/g
Ratio [35]: 2.57
Drug uptake [36]: 17.9 % ID/g
Drug uptake [37]: 0.14 % ID/g
Drug uptake [38]: tde
Drug uptake [39]: 0.2 % ID/g
Drug uptake [40]: 0.12 % ID/g
Drug uptake [41]: 1.12 % ID/g
Drug uptake [42]: 0.36 % ID/g
Drug uptake [43]: 0.18 % ID/g
Drug uptake [44]: 0.25 % ID/g
Drug uptake [45]: 0.89 % ID/g
Drug uptake [46]: 0.25 % ID/g
Drug uptake [47]: 0.13 % ID/g
Drug uptake [48]: 0.06 % ID/g
Drug uptake [49]: 0.37 % ID/g
Drug uptake [50]: 5.15 % ID/g
Drug uptake [51]: 1.17 % ID/g
Drug uptake [52]: 0.47 % ID/g
Drug uptake [53]: 1.08 % ID/g
Drug uptake [54]: 1.35 % ID/g
Drug uptake [55]: 0.22 % ID/g
Drug uptake [56]: 0.18 % ID/g
Drug uptake [57]: 0.21 % ID/g
Drug uptake [58]: 0.28 % ID/g
Drug uptake [59]: 0.38 % ID/g
Compound: O=C(O)CNC(=O)c1ccc(OCC[18F])cc1 [[18F]FEBA hydrolytic acid]
